Test system: interleukin (IL)-6
Assay: Human immune cell line THP-1 in vitro assay: IL-6 in supernatant of LPS-treated differentiated THP1-XBlue cells (ELISA)
Assay type: cell-based
Conditions: differentiated THP1-XBlue cells co-treated with E. coli LPS and composition, 24 hours; percentage to LPS-treated cells = 100%; three repeats
Protocol: Human Immune Cell Line THP-1 In Vitro Assay The following procedure was used to determine the anti-inflammation efficacy: THP1-XBlue™ (Cat No. thpx-sp, InvivoGen, San Diego, CA) cells were cultured as suspension in RPMI 1640 medium supplemented with 10% fetal bovine serum (FBS), penicillin (10 U/mL)-streptomycin (10 μg/mL) (Cat No. 15140122, Invitrogen, Carlsbad, CA). Cells were differentiated in 24-well plates at the density of 5×10^5 cells/well with 100 nM phorbol-12-myristate-13-acetate for 72 hours. Cells were then co-treated with pure E. coli lipopolysaccharides (LPS, Cat No. L2630, Sigma-Aldrich) and various compositions in Table 1. […] Expression of IL-6 was calculated as the percentage to LPS-treated cells which was designated as 100%. P value was analysed by Student's t-test comparing combination groups and individual compound groups (expression of IL-6, three repeats for each group).

CCCCCCC(O)CCCCCCCCCCC(=O)O (stereo not shown) [B, 12-hydroxystearic acid]
Expression of IL-6 (%): 84.4%

Reference: patent publication US12673019B2, “Skin care composition” (Conopco, Inc., priority 2021, dated 2026)
